Patent publication US6828320B2, “Heterocyclic compounds” (SmithKline Beecham Corporation, priority 1996, dated 2004)
Structures can show the parent of a compound that is named as a salt.

What was measured:
[1] = target: T1, EGFr isolated from solubilised A431 cell membranes (Homo sapiens, UniProt P00533); experiment: Substrate phosphorylation assay, EGFr; type: biochemical; conditions: 30 minutes, room temperature, ATP and peptide at Km concentrations
T1 construct: EGFr isolated from solubilised A431 cell membranes; endogenous in cells; host or cells: A431 cell membranes (solubilised)
Procedure: (§1) The substrate phosphorylation assays use baculovirus expressed, recombinant constructs of the intracellular domains of c-erbB-2 and c-erbB-4 that are constitutively active and EGFr isolated from solubilised A431 cell membranes. The method measures the ability of the isolated enzymes to catalyse the transfer of the γ-phosphate from ATP onto tyrosine residues in a biotinylated synthetic peptide (Biotin-[…]. […] The reaction is stopped by the addition of EDTA (final concentration 0.15 mM) and a sample is transferred to a streptavidin-coated 96-well plate. The plate is washed and level of phosphotyrosine on the peptide is determined using a Europium-labelled antiphosphotyrosine antibody and quantified with a time-resolved fluorescence technique.

[2] = tested on: N87-gastric tumour cell line; experiment: Cell proliferation assay, N87; type: cell-based, human; conditions: Homo sapiens, 96 h; same methodology, 4 days
Procedure: (§2) The cell proliferation assay uses an immortalised human breast epithelial cell line (HB4a) which has been transformed by over-expression of c-erbB-2. Growth of these cells in low serum is dependent upon the c-erbB-2 tyrosine kinase activity. The specificity of the effect of the test compounds on tyrosine kinase dependent growth over general toxicity is assessed by comparison to an HB4a cell line which has been transfected with ras. Cells are plated at 3000/ well in 96-well plates in 0.1 ml medium and allowed to attach overnight. test compound is added in 0.1 ml medium, with a final concentration of 0.5% DMSO, and the plates incubated for 4 days at 37° C. The cells are then examined microscopically for evidence of morphological detransformation and cell mass is estimated by staining with methylene blue and measuring the absorbance at 620 nm. The results are shown in Table 1 below as the IC50 values in nM. Activity against a range of naturally occurring EGFr or c-erbB-2 over-expressing human tumour cell lines (BT474-breast, HN5-head and neck, N87-gastric and Calu3-lung) is assessed with selected compounds by the same methodology. The results are also shown in Table 1 below as the IC50 values in nM.

[3] = target: T2, c-erbB-2 (baculovirus expressed, recombinant intracellular domain) (Homo sapiens, UniProt P04626); experiment: Substrate phosphorylation assay, c-erbB-2; type: biochemical; conditions: read-out: Substrate Phosphorylation erbB-2
T2 construct: baculovirus expressed, recombinant constructs of the intracellular domains of c-erbB-2 and c-erbB-4; made in house
Procedure: as §1

[4] = tested on: HN5-head and neck tumour cell line; experiment: Cell proliferation assay, HN5; type: cell-based, human; conditions: Homo sapiens, 96 h; same methodology, 4 days
Procedure: as §2

[5] = tested on: HB4a cell line transfected with ras; experiment: Cell proliferation assay, HB4a ras; type: cell-based, human; conditions: Homo sapiens, HB4a, 96 h; 4 days at 37° C., methylene blue staining; general toxicity control; read-out: Cell Proliferation HB4a ras
[6] = target: HB4a cell line transformed by over-expression of c-erbB-2 (Homo sapiens, UniProt P04626); experiment: Cell proliferation assay, HB4a erbB-2; type: cell-based; conditions: 4 days at 37° C., methylene blue staining; read-out: Cell Proliferation HB4a erbB-2
Procedure: as §2, with “The specificity of the effect of the test compounds on tyrosine kinase dependent growth over general toxicity is assessed by comparison to an HB4a cell line which has been transfected with ras.” left out, “The results are shown in Table 1 below as the IC50 values in nM.” left out, “methodology.” for “methodology. The results are also shown in Table 1 below as the IC50 values in nM.”

[7] = tested on: Calu3-lung tumour cell line; experiment: Cell proliferation assay, Calu3; type: cell-based, human; conditions: Homo sapiens, Calu-3, 96 h; same methodology, 4 days
Procedure: as §2

[8] = target: T3, c-erbB-4 (baculovirus expressed, recombinant intracellular domain) (Homo sapiens, UniProt Q15303); experiment: Substrate phosphorylation assay, c-erbB-4; type: biochemical
T3 construct: baculovirus expressed, recombinant constructs of the intracellular domains of c-erbB-2 and c-erbB-4; made in house
Procedure: as §1

[9] = tested on: BT474-breast tumour cell line; experiment: Cell proliferation assay, BT474; type: cell-based, human; conditions: Homo sapiens, BT-474, 96 h; same methodology, 4 days
Procedure: as §2

HB4a cell line transformed by over-expression of c-erbB-2, sequence (P04626 whole entry, change not shown): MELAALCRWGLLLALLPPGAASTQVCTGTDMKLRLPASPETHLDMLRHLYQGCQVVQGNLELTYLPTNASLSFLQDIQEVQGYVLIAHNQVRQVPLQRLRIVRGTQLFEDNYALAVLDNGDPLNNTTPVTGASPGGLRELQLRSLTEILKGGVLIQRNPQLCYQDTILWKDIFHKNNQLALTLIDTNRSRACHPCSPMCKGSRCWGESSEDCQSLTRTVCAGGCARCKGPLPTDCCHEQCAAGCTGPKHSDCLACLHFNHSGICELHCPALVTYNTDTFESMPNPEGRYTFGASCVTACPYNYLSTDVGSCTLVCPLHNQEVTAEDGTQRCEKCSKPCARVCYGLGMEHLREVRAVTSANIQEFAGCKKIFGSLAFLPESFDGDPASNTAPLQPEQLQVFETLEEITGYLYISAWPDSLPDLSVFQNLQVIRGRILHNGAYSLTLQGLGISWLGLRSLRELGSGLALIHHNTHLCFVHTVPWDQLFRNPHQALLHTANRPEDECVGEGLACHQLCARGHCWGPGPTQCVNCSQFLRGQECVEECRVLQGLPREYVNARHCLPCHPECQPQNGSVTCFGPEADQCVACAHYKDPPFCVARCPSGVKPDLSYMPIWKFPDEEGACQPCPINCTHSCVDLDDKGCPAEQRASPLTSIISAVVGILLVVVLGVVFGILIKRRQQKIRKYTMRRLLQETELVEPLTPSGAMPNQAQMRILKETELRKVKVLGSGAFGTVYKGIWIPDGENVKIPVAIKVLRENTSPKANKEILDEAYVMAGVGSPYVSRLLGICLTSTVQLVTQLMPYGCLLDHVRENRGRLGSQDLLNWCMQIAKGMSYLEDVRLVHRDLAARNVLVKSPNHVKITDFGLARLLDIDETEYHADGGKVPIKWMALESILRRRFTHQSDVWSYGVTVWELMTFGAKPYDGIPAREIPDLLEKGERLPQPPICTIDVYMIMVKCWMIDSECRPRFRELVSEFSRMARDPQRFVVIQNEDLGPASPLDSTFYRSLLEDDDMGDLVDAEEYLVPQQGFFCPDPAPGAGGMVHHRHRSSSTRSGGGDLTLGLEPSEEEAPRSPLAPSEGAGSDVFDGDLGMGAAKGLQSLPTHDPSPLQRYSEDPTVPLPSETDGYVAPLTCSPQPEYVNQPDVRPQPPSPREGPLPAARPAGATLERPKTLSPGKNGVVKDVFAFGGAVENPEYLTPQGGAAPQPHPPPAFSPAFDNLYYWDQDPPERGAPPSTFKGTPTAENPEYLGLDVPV
T1 sequence (P00533 25-1210): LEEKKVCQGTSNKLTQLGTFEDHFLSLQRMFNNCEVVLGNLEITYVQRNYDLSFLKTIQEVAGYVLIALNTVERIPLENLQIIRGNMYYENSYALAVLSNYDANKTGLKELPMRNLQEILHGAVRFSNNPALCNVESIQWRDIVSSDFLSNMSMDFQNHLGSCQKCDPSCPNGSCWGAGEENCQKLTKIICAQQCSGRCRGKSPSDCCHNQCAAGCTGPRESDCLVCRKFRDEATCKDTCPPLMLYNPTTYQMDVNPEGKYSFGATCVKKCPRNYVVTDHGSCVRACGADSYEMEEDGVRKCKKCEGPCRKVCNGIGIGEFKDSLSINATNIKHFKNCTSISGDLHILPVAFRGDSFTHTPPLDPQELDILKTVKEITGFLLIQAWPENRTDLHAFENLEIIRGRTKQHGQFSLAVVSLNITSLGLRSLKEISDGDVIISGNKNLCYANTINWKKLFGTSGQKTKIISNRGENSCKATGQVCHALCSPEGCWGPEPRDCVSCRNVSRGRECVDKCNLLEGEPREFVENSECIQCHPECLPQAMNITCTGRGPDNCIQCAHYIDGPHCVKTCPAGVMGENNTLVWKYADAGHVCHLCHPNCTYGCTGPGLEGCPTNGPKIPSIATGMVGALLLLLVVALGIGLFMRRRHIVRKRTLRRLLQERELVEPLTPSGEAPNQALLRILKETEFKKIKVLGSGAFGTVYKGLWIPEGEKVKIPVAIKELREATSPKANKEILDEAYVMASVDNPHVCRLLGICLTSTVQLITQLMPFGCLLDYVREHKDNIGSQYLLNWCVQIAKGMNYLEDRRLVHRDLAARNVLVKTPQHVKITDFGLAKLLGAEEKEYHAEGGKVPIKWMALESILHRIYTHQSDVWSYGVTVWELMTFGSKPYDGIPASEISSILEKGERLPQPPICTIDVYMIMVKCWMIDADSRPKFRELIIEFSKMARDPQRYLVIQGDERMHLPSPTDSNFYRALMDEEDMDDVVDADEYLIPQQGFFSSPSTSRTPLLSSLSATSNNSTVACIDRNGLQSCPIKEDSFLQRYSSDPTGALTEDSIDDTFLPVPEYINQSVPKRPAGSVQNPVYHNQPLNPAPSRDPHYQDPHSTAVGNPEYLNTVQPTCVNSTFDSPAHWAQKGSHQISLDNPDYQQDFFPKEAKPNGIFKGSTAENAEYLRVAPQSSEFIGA
T2 sequence (P04626 676-1255 limits assumed): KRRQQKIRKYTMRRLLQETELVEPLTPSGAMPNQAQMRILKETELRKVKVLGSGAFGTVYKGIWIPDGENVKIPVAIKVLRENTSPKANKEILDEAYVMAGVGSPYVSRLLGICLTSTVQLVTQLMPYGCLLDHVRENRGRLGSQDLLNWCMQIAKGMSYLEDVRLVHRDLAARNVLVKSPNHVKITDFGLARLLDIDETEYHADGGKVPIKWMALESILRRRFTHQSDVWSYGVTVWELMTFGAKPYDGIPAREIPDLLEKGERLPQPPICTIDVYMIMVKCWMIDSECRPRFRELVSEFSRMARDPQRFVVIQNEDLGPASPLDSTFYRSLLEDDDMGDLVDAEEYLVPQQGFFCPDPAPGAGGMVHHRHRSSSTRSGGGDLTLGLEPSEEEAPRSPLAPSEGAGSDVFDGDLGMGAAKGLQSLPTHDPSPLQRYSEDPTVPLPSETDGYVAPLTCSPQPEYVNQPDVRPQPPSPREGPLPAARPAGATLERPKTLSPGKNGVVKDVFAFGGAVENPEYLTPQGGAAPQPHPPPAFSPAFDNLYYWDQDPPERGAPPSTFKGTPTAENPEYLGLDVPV
T3 sequence (Q15303 676-1308 limits assumed): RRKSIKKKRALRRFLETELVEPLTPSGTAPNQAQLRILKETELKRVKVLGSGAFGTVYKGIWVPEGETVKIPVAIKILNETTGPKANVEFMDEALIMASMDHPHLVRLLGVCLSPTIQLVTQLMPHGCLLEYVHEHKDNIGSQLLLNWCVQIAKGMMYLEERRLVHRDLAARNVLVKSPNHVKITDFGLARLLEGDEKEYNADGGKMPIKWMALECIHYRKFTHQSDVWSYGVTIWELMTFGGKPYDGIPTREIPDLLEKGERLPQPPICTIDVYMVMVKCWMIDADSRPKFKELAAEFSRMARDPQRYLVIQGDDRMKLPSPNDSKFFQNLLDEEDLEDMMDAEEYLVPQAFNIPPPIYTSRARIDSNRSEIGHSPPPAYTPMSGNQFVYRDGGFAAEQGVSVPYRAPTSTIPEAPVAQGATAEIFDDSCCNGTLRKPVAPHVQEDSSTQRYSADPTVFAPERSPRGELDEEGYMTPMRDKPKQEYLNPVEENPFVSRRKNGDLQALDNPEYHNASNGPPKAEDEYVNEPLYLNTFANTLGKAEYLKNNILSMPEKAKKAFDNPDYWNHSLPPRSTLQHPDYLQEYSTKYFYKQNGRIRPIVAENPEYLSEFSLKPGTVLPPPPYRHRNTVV

| IC50 [1] [nM] | IC50 [2] [nM] | IC50 [3] [nM] | IC50 [4] [nM] | GI50 [6] [nM] | IC50 [7] [nM] | IC50 [8] [nM] | IC50 [9] [nM] | SMILES | IC50 [5] [nM] |
| --- | --- | --- | --- | --- | --- | --- | --- | --- | --- |
| 160 | 480 | 36 | 940 | 580 | 930 | 660 | 180 | NC(=O)[C@@H]1CCCN1Cc1ccc(-c2ccc3ncnc(Nc4ccc(OCc5ccccc5)cc4)c3c2)o1 [Example 11, (S)-1-(5-(4-(4-Benzyloxy-phenylamino)-quinazolin-6-yl)-furan-2-ylmethyl)-pyrrolidine-2-carboxylicacid amide] | 14000 |
| 8 | 380 | 1 | 670 | 50 | 920 | 240 | 110 | CS(=O)(=O)CCNCc1ccc(-c2ccc3ncnc(Nc4ccc5c(cnn5Cc5ccccc5)c4)c3c2)o1 [Example 19, (1-Benzyl-1H-indazol-5-yl)-(6-(5-((2-methanesulphonyl-ethylamino)-methyl)-furan-2-yl)-quinazolin-4-yl)-amine dihydrochloride] | 25000 |
| 2 | 1400 | 10 | 970 | 610 | 5300 | 1000 | 260 | Cc1nnc(-c2ccc3ncnc(Nc4ccc5c(cnn5Cc5ccccc5)c4)c3c2)o1 [Example 41, (1-Benzyl-1H-indazol-5-yl)-(6-(5-methyl-1,3,4-oxadiazol-2-yl)-quinazolin-4-yl)-amine hydrochloride] | 35000 |
